# Inconclusive results and toxic doses are left out.
# Test system: CD2F1 mice, L1210 leukemia ip, survival T/C
# Experiment: NCI In Vivo Anticancer Drug Screen. Data for tumor model L1210 Leukemia (intraperitoneal) in CD2F1 (CDF1) mice
# Details: higher = longer survival
# Outline: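 Activity against a transplanted murine tumor was judged by comparing the compound group with a vehicle group. The outcome in the treated animals was divided by that in the controls.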
# [1] = endpoint: mean survival time, dose: 100.0 mg/kg/injection, schedule: Q04DX003 (ip), vehicle: saline with Tween-80
# [2] = endpoint: mean survival time, dose: 200.0 mg/kg/injection, schedule: Q04DX003 (ip), vehicle: saline with Tween-80
# [3] = endpoint: mean survival time, dose: 400.0 mg/kg/injection, schedule: Q04DX003 (ip), vehicle: saline with Tween-80
# [4] = endpoint: mean survival time, dose: 100.0 mg/kg/injection, schedule: Q04DX003 (ip), vehicle: saline
# [5] = endpoint: mean survival time, dose: 200.0 mg/kg/injection, schedule: Q04DX003 (ip), vehicle: saline
# [6] = endpoint: mean survival time, dose: 400.0 mg/kg/injection, schedule: Q04DX003 (ip), vehicle: saline
# [7] = endpoint: mean survival time, dose: 100.0 mg/kg/injection, schedule: Q01DX001 (ip), vehicle: saline with Tween-80
# [8] = endpoint: mean survival time, dose: 100.0 mg/kg/injection, schedule: Q01DX009 (ip), vehicle: saline with Tween-80
# [9] = endpoint: mean survival time, dose: 200.0 mg/kg/injection, schedule: Q01DX001 (ip), vehicle: saline with Tween-80
# [10] = endpoint: mean survival time, dose: 200.0 mg/kg/injection, schedule: Q01DX009 (ip), vehicle: saline with Tween-80
# [11] = endpoint: mean survival time, dose: 400.0 mg/kg/injection, schedule: Q01DX001 (ip), vehicle: saline with Tween-80
# [12] = endpoint: mean survival time, dose: 100.0 mg/kg/injection, schedule: Q04DX002 (ip), vehicle: saline with Tween-80
# [13] = endpoint: mean survival time, dose: 200.0 mg/kg/injection, schedule: Q04DX002 (ip), vehicle: saline with Tween-80
# [14] = endpoint: mean survival time, dose: 400.0 mg/kg/injection, schedule: Q04DX002 (ip), vehicle: saline with Tween-80
compound,measurement,setting,value
COC(=O)C1C2CCCN2OC1(C)CO (centres undefined),T/C,"endpoint: median survival time, dose: 7.5 mg/kg/injection, schedule: Q01DX005 (ip), vehicle: saline",98 % of control
same,T/C,"endpoint: median survival time, dose: 15.0 mg/kg/injection, schedule: Q01DX005 (ip), vehicle: saline",101 % of control
same,T/C,"endpoint: median survival time, dose: 30.0 mg/kg/injection, schedule: Q01DX005 (ip), vehicle: saline",96 % of control
same,T/C,"endpoint: median survival time, dose: 60.0 mg/kg/injection, schedule: Q01DX005 (ip), vehicle: saline",106 % of control
same,T/C,"endpoint: median survival time, dose: 120.0 mg/kg/injection, schedule: Q01DX005 (ip), vehicle: saline",104 % of control
CCN(C)c1cc2c3c(c1)CCCN3CCC2,T/C,"endpoint: mean survival time, dose: 1.25 mg/kg/injection, schedule: Q01DX009 (ip), vehicle: saline",103 % of control
same,T/C,"endpoint: mean survival time, dose: 2.5 mg/kg/injection, schedule: Q01DX009 (ip), vehicle: saline",104 % of control
same,T/C,"endpoint: mean survival time, dose: 5.0 mg/kg/injection, schedule: Q01DX001 (ip), vehicle: saline",100 % of control
same,T/C,"endpoint: mean survival time, dose: 5.0 mg/kg/injection, schedule: Q01DX009 (ip), vehicle: saline",98 % of control
same,T/C,"endpoint: mean survival time, dose: 10.0 mg/kg/injection, schedule: Q01DX001 (ip), vehicle: saline",101 % of control
same,T/C,"endpoint: mean survival time, dose: 20.0 mg/kg/injection, schedule: Q01DX001 (ip), vehicle: saline",102 % of control
C=C1C(=O)OC2CC1C(OC(C)=O)CC1(C)OC1CCC1(C)OC1CCC2(C)O (centres undefined),T/C,"endpoint: mean survival time, dose: 6.25 mg/kg/injection, schedule: Q01DX009 (ip), vehicle: Klucel (hydroxypropylcellulose) (HPC)",102 % of control
same,T/C,"endpoint: mean survival time, dose: 12.5 mg/kg/injection, schedule: Q01DX009 (ip), vehicle: Klucel (hydroxypropylcellulose) (HPC)",107 % of control
same,T/C,"endpoint: mean survival time, dose: 25.0 mg/kg/injection, schedule: Q01DX009 (ip), vehicle: Klucel (hydroxypropylcellulose) (HPC)",105 % of control
CCCCCCOc1ccc(/C=N\N=C\c2ccc(OCCCCCC)cc2)cc1,T/C,[1],91 % of control
same,T/C,[2],89 % of control
same,T/C,[3],91 % of control
Nc1ccc(Cl)cc1C(=O)c1ccc[nH]1,T/C,"endpoint: mean survival time, dose: 100.0 mg/kg/injection, schedule: Q01DX001 (ip), vehicle: saline",101 % of control
same,T/C,[4],94 % of control
same,T/C,"endpoint: mean survival time, dose: 200.0 mg/kg/injection, schedule: Q01DX001 (ip), vehicle: saline",98 % of control
same,T/C,[5],94 % of control
same,T/C,"endpoint: mean survival time, dose: 400.0 mg/kg/injection, schedule: Q01DX001 (ip), vehicle: saline",93 % of control
same,T/C,[6],94 % of control
O=C1C2C3SC(c4nc5ccccc5cc43)C2C(=O)N1c1ccccc1 (centres undefined),T/C,"endpoint: mean survival time, dose: 25.0 mg/kg/injection, schedule: Q01DX001 (ip), vehicle: saline with Tween-80",92 % of control
same,T/C,"endpoint: mean survival time, dose: 50.0 mg/kg/injection, schedule: Q01DX001 (ip), vehicle: saline with Tween-80",92 % of control
Cc1cc(Br)c[nH]c1=O,T/C,[7],104 % of control
same,T/C,[8],94 % of control
same,T/C,[9],108 % of control
same,T/C,[10],100 % of control
same,T/C,[11],104 % of control
CNC(=O)Nc1ccccc1OS(=O)(=O)N(C)C,T/C,[1],97 % of control
same,T/C,[2],104 % of control
same,T/C,[3],104 % of control
CCC1CC(=O)C2Nc3ccccc3C2C1 (centres undefined),T/C,[7],88 % of control
same,T/C,[11],86 % of control
O=Nc1sc2ccccc2c1O,T/C,[1],104 % of control
same,T/C,[2],96 % of control
same,T/C,[3],96 % of control
CCOC(=O)c1cnc(SC)nc1NCc1ccc(Cl)cc1,T/C,[7],98 % of control
same,T/C,[8],100 % of control
same,T/C,[9],102 % of control
same,T/C,[10],103 % of control
same,T/C,[11],94 % of control
same,T/C,"endpoint: mean survival time, dose: 400.0 mg/kg/injection, schedule: Q01DX009 (ip), vehicle: saline with Tween-80",97 % of control
O=C(Cc1ccccc1)C(O)c1ccccc1 (centres undefined),T/C,[7],86 % of control
same,T/C,[9],92 % of control
same,T/C,[11],87 % of control
C=CCN(CC=C)C(=O)OCC,T/C,[8],97 % of control
same,T/C,[4],97 % of control
same,T/C,[10],96 % of control
same,T/C,[5],95 % of control
same,T/C,[6],101 % of control
Nc1nc2ncc(CSc3ccc(C(=O)NC(CCC(=O)O)C(=O)O)cc3)nc2c(=O)[nH]1 (centres undefined),T/C,"endpoint: mean survival time, dose: 1.0 mg/kg/injection, schedule: Q01DX009 (ip), vehicle: sodium bicarbonate",107 % of control
same,T/C,"endpoint: mean survival time, dose: 2.0 mg/kg/injection, schedule: Q01DX009 (ip), vehicle: saline with Tween-80",101 % of control
same,T/C,"endpoint: mean survival time, dose: 2.0 mg/kg/injection, schedule: Q01DX009 (ip), vehicle: sodium bicarbonate",111 % of control
same,T/C,"endpoint: mean survival time, dose: 4.0 mg/kg/injection, schedule: Q01DX009 (ip), vehicle: saline with Tween-80",101 % of control
same,T/C,"endpoint: mean survival time, dose: 4.0 mg/kg/injection, schedule: Q01DX009 (ip), vehicle: sodium bicarbonate",124 % of control
same,T/C,"endpoint: mean survival time, dose: 5.4 mg/kg/injection, schedule: Q01DX009 (ip), vehicle: sodium bicarbonate",90 % of control
same,T/C,"endpoint: mean survival time, dose: 8.0 mg/kg/injection, schedule: Q01DX009 (ip), vehicle: saline with Tween-80",104 % of control
same,T/C,"endpoint: mean survival time, dose: 8.0 mg/kg/injection, schedule: Q01DX009 (ip), vehicle: sodium bicarbonate",97 % of control
same,T/C,"endpoint: mean survival time, dose: 12.0 mg/kg/injection, schedule: Q01DX009 (ip), vehicle: sodium bicarbonate",95 % of control
same,T/C,"endpoint: mean survival time, dose: 16.0 mg/kg/injection, schedule: Q01DX009 (ip), vehicle: saline with Tween-80",97 % of control
same,T/C,"endpoint: mean survival time, dose: 16.0 mg/kg/injection, schedule: Q01DX009 (ip), vehicle: sodium bicarbonate",113 % of control
same,T/C,"endpoint: mean survival time, dose: 32.0 mg/kg/injection, schedule: Q01DX009 (ip), vehicle: saline with Tween-80",101 % of control
Cc1cc(=O)n(C2CCCCC2)c(=NC2CCCCC2)o1,T/C,[12],100 % of control
same,T/C,[13],95 % of control
same,T/C,[14],95 % of control
CCCOC(=O)c1cc([N+](=O)[O-])c(Sc2ncnc3nc[nH]c23)c([N+](=O)[O-])c1,T/C,"endpoint: mean survival time, dose: 0.63 mg/kg/injection, schedule: Q01DX005 (ip), vehicle: other",109 % of control
same,T/C,"endpoint: mean survival time, dose: 1.25 mg/kg/injection, schedule: Q01DX005 (ip), vehicle: other",116 % of control
same,T/C,"endpoint: mean survival time, dose: 2.5 mg/kg/injection, schedule: Q01DX005 (ip), vehicle: other",111 % of control
same,T/C,"endpoint: mean survival time, dose: 5.0 mg/kg/injection, schedule: Q01DX005 (ip), vehicle: other",111 % of control
same,T/C,"endpoint: mean survival time, dose: 10.0 mg/kg/injection, schedule: Q01DX005 (ip), vehicle: other",121 % of control
same,T/C,"endpoint: mean survival time, dose: 62.5 mg/kg/injection, schedule: Q01DX005 (ip), vehicle: other",165 % of control
same,T/C,"endpoint: mean survival time, dose: 125.0 mg/kg/injection, schedule: Q01DX005 (ip), vehicle: other",101 % of control
Nc1ccc(S(=O)(=O)O)c2ccccc12,T/C,"endpoint: mean survival time, dose: 50.0 mg/kg/injection, schedule: Q01DX009 (ip), vehicle: Klucel (hydroxypropylcellulose) (HPC)",86 % of control
same,T/C,"endpoint: mean survival time, dose: 100.0 mg/kg/injection, schedule: Q01DX009 (ip), vehicle: Klucel (hydroxypropylcellulose) (HPC)",104 % of control
same,T/C,[4],97 % of control
same,T/C,"endpoint: mean survival time, dose: 200.0 mg/kg/injection, schedule: Q01DX009 (ip), vehicle: Klucel (hydroxypropylcellulose) (HPC)",104 % of control
same,T/C,[5],101 % of control
same,T/C,[6],103 % of control
COC(=O)C(=C(C)C)[N+](=O)[O-],T/C,[1],91 % of control
same,T/C,[2],95 % of control
same,T/C,[3],95 % of control
O=c1[nH]cnc2ccccc12,T/C,[12],96 % of control
same,T/C,[13],101 % of control
same,T/C,[14],104 % of control
FC(F)(F)c1cccc(C(OCCN2CCCC2)c2ccccc2)c1 (centres undefined),T/C,"endpoint: mean survival time, dose: 6.25 mg/kg/injection, schedule: Q01DX009 (ip), vehicle: saline",105 % of control
same,T/C,"endpoint: mean survival time, dose: 12.5 mg/kg/injection, schedule: Q01DX009 (ip), vehicle: saline",105 % of control
same,T/C,"endpoint: mean survival time, dose: 25.0 mg/kg/injection, schedule: Q01DX009 (ip), vehicle: saline",109 % of control
